Values of other authors, collected in patent publication US12310957B2, “Bowel cleansing composition” (priority 2013, dated 2025).

Test system: patients undergoing colonoscopy
Details: Nunes et al. 2008, scale proposed by the authors

Structure (SMILES): OC[C@@H](O)[C@@H](O)[C@H](O)[C@H](O)CO [mannitol]
- rate of adequate bowel cleansing: 75%
